US12704520B2, “Melanogenesis detection method using FAM86A” (Research & Business Foundation Sungkyunkwan University, priority 2019, dated 2026)

Experiments:
Type in all cases: cell-based, mouse
B16F10 cells [1] = test: Melanin secretion assay after FAM86A knockdown and α-MSH treatment; conditions: FAM86A knockdown plus α-MSH 100 nM, 48 hours, absorbance 475 nm
Procedure: The melanin synthesis promoting hormone α-MSH was used to induce melanogenesis in melanocytes.
The B16F10 cells cultured in Example 1 were seeded in a 6-well plate at 5×10^4 cells/well and cultured for 24 hours, FAM86A (family with sequence similarity 86, member A) shRNA represented by SEQ ID NO: 17 was used for knockdown of the FAM86A gene, and then the cells were treated with α-MSH at 100 nM. The resulting cells were cultured in an incubator under conditions of 37° C. and 5% CO2 for 48 hours, and 800 μL of the cell culture fluid was transferred to a fresh tube, and centrifuged at 4° C. and 12,000 rpm for 5 minutes to obtain a supernatant. 100 μL of the resulting supernatant was dispensed into a 96-well plate, and subjected to absorbance measurement at 475 nm. Here, an amount of melanin production was calculated based on 100% of the amount of melanin in cells not treated with α-MSH.

B16F10 cells [2] = test: Melanin content assay after FAM86A knockdown; conditions: FAM86A knockdown without α-MSH, 48 hours, absorbance 405 nm
Procedure: The B16F10 cells cultured in Example 1 were seeded in a 6-well plate at 5×10^4 cells/well and cultured for 24 hours, and the knockdown of the FAM86A gene was induced using FAM86A shRNA represented by SEQ ID NO: 17. The cells were cultured in an incubator under conditions of 37° C. and 5% CO2 for 48 hours, the medium was removed, and then a cell lysis buffer was added at 200 μL per well to lyse the cells, followed by centrifugation at 4° C. and 12,000 rpm for 5 minutes and removal of a supernatant. The resulting pellet was treated with 100 μL of a 10% sodium dodecyl sulfate-1M NaOH solution, and heated for 30 minutes at 60° C. Afterward, the heated solution was maintained at room temperature to cool to 25° C., and absorbance at 405 nm was measured. Here, an amount of melanin production was calculated based on 100% of the amount of melanin in cells in which the FAM86A gene was not knocked down.

B16F10 cells [3] = test: Melanin secretion assay after FAM86A knockdown; conditions: FAM86A knockdown without α-MSH, 48 hours, absorbance 475 nm
Procedure: The B16F10 cells cultured in Example 1 were seeded in a 6-well plate at 5×10^4 cells/well and cultured for 24 hours, and the knockdown of the FAM86A gene was induced using FAM86A shRNA represented by SEQ ID NO: 17. The cells were cultured in an incubator under conditions of 37° C. and 5% CO2 for 48 hours, the medium was removed, and then a cell lysis buffer was added at 200 μL per well to lyse the cells, followed by centrifugation at 4° C. and 12,000 rpm for 5 minutes and removal of a supernatant. 100 μL of the resulting supernatant was dispensed into a 96-well plate, and subjected to absorbance measurement at 475 nm. Here, an amount of melanin secretion was calculated based on 100% of the amount of melanin in cells in which the FAM86A gene was not knocked down.

B16F10 cells [4] = test: Fontana-Masson staining after FAM86A knockdown; conditions: α-MSH 100 nM, 48 hours, microscope
Procedure: The B16F10 cells cultured in Example 1 were seeded in 6-well plates at a density of 5×10^4 cells per well, grown for 24 hours, and FAM86A shRNA represented by SEQ ID NO: 17 was used for knockdown of the FAM86A gene. The cells were treated with α-MSH at 100 nM. The resulting cells were cultured in an incubator under conditions of 37° C. and 5% CO2 for 48 hours, washed twice with PBS, and 1 mL of a 1% ammoniacal silver nitrate solution was added to each well, followed by heating a plate in a 60° C. dryer for 1 hour. Subsequently, the plate was washed three times with running water, and treated with 1 mL of a 0.2% gold chloride solution per well for 30 seconds. Afterward, the plate was washed twice with running water, treated with 1 mL of a 5% sodium thiosulfate solution per well, washed twice with running water, treated with 1 mL of a 0.5% neutral red solution per well for 2 minutes, and then washed with running water. The reaction result was confirmed under a microscope.

[5] = tested on: tyrosinase, TYRP-1, TYRP-2 and MITF genes; test: Real-time PCR of melanogenesis-associated genes after FAM86A knockdown; conditions: B16F10 cells, 48 hours
Procedure: The B16F10 cells cultured in Example 1 were seeded in 6-well plates at a density of 5×10^4 cells per well, grown for 24 hours, and FAM86A shRNA represented by SEQ ID NO: 17 was used for knockdown of the FAM86A gene. The cells were incubated in an incubator under conditions of 37° C. and 5% CO2 for 48 hours. After 48 hours, the medium was completely removed, the cells were decomposed with TRIzol and neutralized using BCP. The neutralized liquid was treated with isopropanol to precipitate mRNA. Subsequently, only the precipitated mRNA was collected using a centrifuge, and used for the experiment. Intracellular mRNA was synthesized into cDNA using a cDNA kit, and the expression levels of tyrosinase, TYRP-1, TYRP-2 and MITF genes, which are important for melanogenesis, were determined by PCR.

cAMP = cAMP ELISA after FAM86A knockdown; conditions: B16F10 cells
Procedure: The B16F10 cells cultured in Example 1 were seeded in 6-well plates at a density of 5×10^4 cells per well, grown for 24 hours, and FAM86A shRNA represented by SEQ ID NO: 17 was used for FAM86A gene knockdown. Afterward, the cells were washed twice with PBS. Subsequently, PBS was completely removed, and then 200 μL of RIPA buffer, which is a tissue lysis and staining reagent, was added to each plate, followed by harvesting cells with a scraper. Afterward, a BCA assay was conducted to quantify proteins, and then the expression of cAMP protein was measured using a cAMP ELISA kit (ab65355).

SEQ ID NO: 17: FAM86 shRNA (Mus musculus, NM_027446.2), pLKO.1 vector, target sequence SEQ ID NO: 27; used in the examples (DNA CCGGGTCTATGTAGCCTATACTATCCTCGAGGATAGTATAGGCTACATAGACTTTTTG)
secretion amount of melanin (B16F10 cells [1]): increased
amount of melanin (production) (B16F10 cells [2]): increased
amount of melanin secretion (B16F10 cells [3]): increased
presence of melanin (Fontana-Masson staining) (B16F10 cells [4]): more present
expression level of MITF gene [5]: significantly increased
expression level of TYRP-1 gene [5]: significantly increased
expression level of TYRP-2 gene [5]: significantly increased
expression level of tyrosinase gene [5]: significantly increased
cAMP expression (cAMP): increased
